Data reported in patent US10047151B2, “Methods for the treatment of cancer and inflammatory diseases using cereblon as a predictor” (Celgene Corporation, priority 2011, dated 2018).

How the values were obtained:
Format in all cases: cell-based
[1] = test system: p21^WAF-1; assay: p21WAF-1 mRNA and protein levels in U266B1 cells; conditions: U266B1, control mock and negative control siRNA-transfected cells; pomalidomide 1 μM, lenalidomide 10 μM
Description: To further investigate the effects of CRBN on the cell cycle arrest induced by drugs we used RT-PCR and Western blot analysis to measure the levels of key cell cycle and apoptotic regulators. U266B1 cells were transfected with mock, negative control siRNA, CRBN-siRNA-7 and CRBN-siRNA-11 for 24, 48, 72 and 96 h (FIG. 3A). Cells were treated 24 h after transfection with DMSO (0.1%), pomalidomide (1 μM) and lenalidomide (10 μM) for 1, 2, 3 days and the effect on mRNA and protein levels of the cyclin-dependent kinase (CDK) inhibitor p21^WAF-1 were evaluated. It has been shown that lenalidomide- and pomalidomide-induced cell cycle arrest is dependent on up-regulation of p21^WAF-1 in […]. […] However, knockdown of CRBN prevents the induction of p21^WAF-1 indicating the successful abrogation of G1 arrest and renewal of S phase progression (FIGS. 3C & 3D).

[2] = test system: U266B1 cells; assay: Gene expression profile by microarray in U266B1 cells; conditions: negative control siRNA-transfected U266B1 cells; pomalidomide 1 μM, lenalidomide 10 μM; ±1.7 fold, P<0.05
Description: Gene expression profile using microarray technology identified 759 or 609 genes differentially modulated in negative control siRNA-transfected U266B1 cells treated with pomalidomide (1 μM) or lenalidomide (10 μM) compared to DMSO treated control (±1.7 fold; P<0.05 ANOVA p-value) (FIGS. 5A & 5B).

[3] = test system: OCI-Ly10; assay: Apoptosis of DLBCL cells
Text: In order to define the place of lenalidomide for DLBCL therapy in specific patient populations and to understand the molecular mechanisms of efficacy, a panel of DLBCL cell lines was collected in this study. The DLBCL subtypes of the cell lines were confirmed based on literature information (Lenz G, et al., Proc Natl Acad Sci USA 2008; 105: 13520-5) and molecular analysis, including intracellular NF-κB activity or IRF4 expression, as well as gene expression profiling of key signature genes of activated B cells.

[4] = test system: IRF4; assay: IRF4 protein expression in ABC-DLBCL cells (Western blot)
Description: Cells were treated with test compounds or 0.1% DMSO for indicated times. Following incubation, cells were collected, pelleted with centrifugation, and immediately lysed in 0.1 ml lysis buffer containing 10 mM Tris-HCl pH 8.0, 10 mM EDTA, 150 mM NaCl, 1% NP-40, 0.5% SDS, 1 mM DTT, 1 mM Na3VO4, plus Complete protease inhibitor cocktail (Roche Applied Science, Indianapolis, Ind.), then processed with a Qiashredder™ (Qiagen, Valencia, Calif.) for 1 minute and frozen on dry ice. Samples were diluted with 6×SDS sample buffer and then boiled for 5 min. Approximately 30 μl of this mixture was loaded per lane on a Criterion Precast 4-12% Tris-HCl gel (Bio-Rad, Hercules, Calif.), electrophoresed, and transferred to nitrocellulose membranes (Bio-Rad, Hercules, Calif.). The membranes were blocked for 1 hour at room temperature using blocking buffer (LI-COR Biosciences, Lincoln, Nebr.), then incubated overnight at 4° C. with antibodies against either BCL-10, IRF4, CRBN or β-actin. Membranes were washed and incubated with IRDye Secondary Antibodies (1:30,000) for 1 hour at room temperature. A standard protocol was then followed for signal detection, using the Odyssey® Infrared Imaging System and software (LI-COR Biosciences, Lincoln, Nebr.).
To understand the molecular mechanism of lenalidomide on ABC-DLBCL cells, the effects of lenalidomide on IRF4 expression in these cells were investigated. […] Lenalidomide-induced decrease of IRF4 expression occurred as early as 1 day of drug treatment, with similar kinetics to that of the inhibitors (zVRPR-fmk and LY-333,531, respectively) of MALT1 and PKCβ, two key enzymes involved in NF-κB activation upon BCR engagement in B cells.

[5] = test system: NF-κB; assay: NF-κB-driven luciferase reporter gene assay in DLBCL cells; conditions: OCI-Ly10 and U2932; 2 day drug treatment
Description: For the NF-κB-driven luciferase reporter gene assay, cells were transfected with the pGL4.32 [luc2P/NF-κB-RE/Hygro] plasmid (Promega, Madison, Wis.) using Nucleofector kit V and program 013 according to the manufacturer's protocol (Amaxa Biosystems, Gaithersburg, Md.). After 24 hours of transfection, cells were treated with test agents for 2 days and lysates were prepared using the Dual-Glo® Luciferase Assay System (Promega). Luciferase activities of each sample were measured using a TopCount NXT Microplate Scintillation and Luminescence Counter (Packard BioScience).
To knockdown IRF4, cells were transfected with Silencer® Select siRNA (small interfering RNA, Applied Biosystems) directed against IRF4, CRBN, or Silencer® Select Negative Control siRNAs at a final concentration of 0.2-1 μM using Nucleofector® Kit V for transfection. For IRF4 overexpression, cells were transfected with IRF4- or green fluorescent protein (GFP)-cytomegalovirus (CMV) expression plasmids (OriGene Technologies, Rockville, Md.) for 24 h using the Cell Line Nucleofector kit V as above-mentioned. After 24 hours of transfection, cells were treated with lenalidomide for 2 days before luciferase assay, RT-PCR gene expression analysis and Western blot. […]

## Nc1cccc2c1CN(C1CCC(=O)NC1=O)C2=O (stereo not drawn) [lenalidomide, 3-(4-amino-1-oxo-1,3-dihydro-isoindol-2-yl)-piperidine-2,6-dione]
[1]
  p21 level: up-regulated
[2]
  genes differentially modulated compared to DMSO treated control: 609 genes
[3]
  apoptosis of sensitive cell lines: induced apoptosis
[4]; OCI-Ly3 cells, 1-3 day treatments
  IRF4 levels: neither lenalidomide nor the PKCβ inhibitor had any appreciable effect
[4]; sensitive cell lines U2932 and OCI-Ly10, treatment for 1-3 days
  IRF4 protein levels: significantly downregulate
[5]
  inhibition of transcriptional activity of NF-κB: 32-56%
